No end group written: not given here.
Experiments:
KSBcl-2 = KSBcl-2 (Human herpesvirus 8 type P, UniProt F5HGJ3); assay: biochemical; format: binding, Kaposi's sarcoma-associated herpesvirus (KSHV)
BHRF1 = BHRF1 (Epstein-Barr virus, UniProt P03182); assay: biochemical; format: binding, Epstein-Barr herpesvirus (EBV)
Mcl-1 = Mcl-1 (Homo sapiens, UniProt Q07820); assay: Direct fluorescence anisotropy binding to Mcl-1
Mcl-1, sequence (Q07820 whole entry): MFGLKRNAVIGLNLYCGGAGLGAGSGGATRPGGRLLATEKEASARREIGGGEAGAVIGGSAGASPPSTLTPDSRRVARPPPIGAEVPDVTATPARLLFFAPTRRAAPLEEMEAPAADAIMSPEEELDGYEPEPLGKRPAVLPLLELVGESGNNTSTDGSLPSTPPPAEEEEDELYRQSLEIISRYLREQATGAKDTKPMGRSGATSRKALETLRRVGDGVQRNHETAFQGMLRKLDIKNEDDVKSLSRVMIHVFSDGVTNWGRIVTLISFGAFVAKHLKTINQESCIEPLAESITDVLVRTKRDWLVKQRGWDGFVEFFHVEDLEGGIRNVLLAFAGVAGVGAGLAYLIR

KSBcl-2, sequence (F5HGJ3 whole entry): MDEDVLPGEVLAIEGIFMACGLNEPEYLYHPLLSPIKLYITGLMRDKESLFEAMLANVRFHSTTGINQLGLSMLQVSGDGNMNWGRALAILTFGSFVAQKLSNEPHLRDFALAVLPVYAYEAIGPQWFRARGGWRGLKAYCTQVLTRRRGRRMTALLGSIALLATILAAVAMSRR
BHRF1, sequence (P03182 whole entry): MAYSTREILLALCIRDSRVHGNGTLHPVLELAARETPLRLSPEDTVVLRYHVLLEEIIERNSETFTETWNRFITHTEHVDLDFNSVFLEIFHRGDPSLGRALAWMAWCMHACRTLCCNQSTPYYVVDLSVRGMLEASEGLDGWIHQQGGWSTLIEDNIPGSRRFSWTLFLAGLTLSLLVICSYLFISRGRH

Substance	Kd (KSBcl-2) [nM]	Kd (BHRF1) [nM]	Kd (Mcl-1) [nM]
RPIIWIGQEISRVGDRENAYKAR-NH2 [BL6-22_Y4eK]	750 ± 300	30 ± 17	~2200
RPNIWLTQRLQRTGDGLNAYYAR-NH2 [KScomp]	13 ± 7.3	> 1000	510 ± 190
RPQIWIHQGLQRLGAGLNAYYAR-NH2 [KL6-7_D3fA]	180 ± 80	> 1000	> 5000
RPQIWIHQGLQRLGDGLNAYKAR-NH2 [KL6-7_Y4eK]	2.9 ± 1.3	> 1000	~7800
